We go through 19 compounds from PMC9572541, “Design, Synthesis and Biological Evaluation of Novel and Potent Protein Arginine Methyltransferases 5 Inhibitors for Cancer Therapy” (Molecules, 2022).

The target in assay [1] is T1, PRMT5 (Homo sapiens, UniProt O14744).
T1 construct: The final concentrations of PRMT5 enzyme: 2.5 nm/L
As to the kind of experiment: PRMT5 enzymatic activity inhibition assay (radioactive methylation, 3H-SAM to H4R3 peptide). Type of assay: biochemical. Particulars: for inhibition at 0.1 µM: 100 nM compound, read-out: Inhibition Rate% @100 nM. How it is done:
The PRMT5 enzymatic activity assay was conducted by Chempartner Life science. The final concentrations of PRMT5 enzyme: 2.5 nm/L; ^3H-SAM: 0.3 μM/L; histone peptide (H4R3S1ac): 0.3 μM/L. The protocol of radioactive methylation assay was as follows: (1) Prepare 1× assay buffer (modified Tris Buffer). (2) Transfer compounds to assay plate using Echo in 100% DMSO. DMSO’s final fraction is 1%. (3) Prepare enzyme and ^3H-SAM Mix solution in 1× assay buffer. (4) Prepare substrate (peptide sequence Ac-[…]-K(Biotin)) solution in 1× assay buffer. (5) Transfer 15 μL of enzyme and ^3H-SAM solution to assay plate. (6) Incubate at room temperature for 60 min. (7) Add 10 μL of substrate solution to each well to start the reaction, and for low control transfer 10 μL of 1× assay buffer. (8) Incubate at room temperature for 120 min. (9) Add cold SAM in 1× assay buffer to make the stop mix. (10) Stop reaction with addition of 5 µL per well of stop solution. (11) Transfer 25 µL of volume per well to Flash plate from assay plate. (12) Incubate for 1 h minimum at room temperature.
(13) Read plate on Micro beta. (14) Data process—get the data in Excel to obtain inhibition values using Equation (1).Inhibitory rate% = (Max-Signal)/ (Max-Min) × 100(1)
Fit the data in XL-Fit to obtain IC50 values using Equation (2): Y = Bottom + (Top-Bottom)/(1 + (IC50/X) […]) Y is% inhibition and X is compound concentration(2)

The test system of assay [2] is AML-12 hepatocytes. Nature of the assay: Toxicity on normal AML-12 hepatocytes. The conditions noted are these: Mus musculus, AML12. Type of assay: cell-based. From the text:
(§1) MV-4-11 and MDA-MB-468 cell lines were used to evaluate the anti-proliferative activities of the selected target compounds (CellTiter-Glo assay), and AML-12 hepatocytes were selected to evaluate the toxicity of the compounds.
MV-4-11 and MDA-MB-468 cell line were derived from Cell Resources Center of Shanghai Academy of life sciences (Shanghai, China). AML-12 cell line was brough from Nanjing Lixing Biotechnology Co. Ltd. (Nanjing, China). MDA-MB-468 cell line was maintained in Dulbecco’s Modified Eagle Medium (DMEM, KeyGEN Bio) that contained 10% FBS (Biochanel, China), MV-4-11 cell line was maintained in Iscove’s Modified Dulbecco Medium containing; 10% FBS (Biochannel, China), AML-12 cell line was maintained in DMEM/F-12 (1:1) (KeyGEN, China; 1% ITS Liquid Media Supplement (Sigma, America), dexamethasone 40 ng/mL (Sigma, USA) and 10% FBS (Biochannel, China). All cells were grown in a humidified incubator containing 5% carbon dioxide at 37 ℃. All compounds were dispersed in dimethyl sulfoxide (Sigma), the concentration of the reserve solution was 10 mmol/L and the solution was stored in a refrigerator at −20 ℃. SDMA (# 13222S), β- Tubulin (#2146S) and horseradish peroxidase (HRP)-linked secondary antibodies anti-rabbit or anti-mouse IgG were purchased from Cell Signaling Technology (CST), and the anti-PRMT5 (ab109451) antibody was purchased from ABCAM. […]

Assay [3] relates to MV-4-11 cells. Nature of the assay: Anti-proliferation CellTiter-Glo assay, MV-4-11. The format is cell-based. The conditions noted are these: Homo sapiens, MV4-11, 12th day.
Source text: as §1
(§2) MV-4-11 and MDA-MB-468 cell line were derived from Cell Resources Center of Shanghai Academy of life sciences (Shanghai, China). AML-12 cell line was brough from Nanjing Lixing Biotechnology Co. Ltd. (Nanjing, China). MDA-MB-468 cell line was maintained in Dulbecco’s Modified Eagle Medium (DMEM, KeyGEN Bio) that contained 10% FBS (Biochanel, China), MV-4-11 cell line was maintained in Iscove’s Modified Dulbecco Medium containing; 10% FBS (Biochannel, China), AML-12 cell line was maintained in DMEM/F-12 (1:1) (KeyGEN, China; 1% ITS Liquid Media Supplement (Sigma, America), dexamethasone 40 ng/mL (Sigma, USA) and 10% FBS (Biochannel, China). All cells were grown in a humidified incubator containing 5% carbon dioxide at 37 ℃. All compounds were dispersed in dimethyl sulfoxide (Sigma), the concentration of the reserve solution was 10 mmol/L and the solution was stored in a refrigerator at −20 ℃. SDMA (# 13222S), β- Tubulin (#2146S) and horseradish peroxidase (HRP)-linked secondary antibodies anti-rabbit or anti-mouse IgG were purchased from Cell Signaling Technology (CST), and the anti-PRMT5 (ab109451) antibody was purchased from ABCAM.
(§3) The antiproliferative activities of compounds in vitro were measured by CellTiter-Glo (CTG) assay (Promega, America). In linear/log-phase growth, cultured MV-4-11 cells were split to with seeding density of 2 × 10^5 cells/mL in 1–20 mL of media, depending on the yield required at the end of the growth period. At the conclusion of each treatment period, cells were harvested by centrifugation (4 min, 1000 rpm), and cell pellets were rinsed twice with PBS before being research further processing. Afterwards, cells were plated in 96-well plates with a density of 500 cells/well in […] media. After six hours incubation, compounds treatment was performed. Half of the culture medium was moved and re-plated with fresh media with fresh compound after 6 days. On the 12th day, Cell Titer-Glo Luminescent Cell Viability assays (Promega, USA) were used to determine the viable cell number, and luminescence was recorded using the Envision Multilabel Plate Readers (PerkinElmer). The concentration dependence curves were determined at each time point using GraphPad Prism 8.0 software.
For orientation: In ATP-based viability assays light output follows the ATP content of the culture.

Assay [4] deals with MDA-MB-468 cells. As to the kind of experiment: Anti-proliferation CellTiter-Glo assay, MDA-MB-468. Type of assay: cell-based. Particulars: Homo sapiens.
Source text: as §1, §2, §3

T1 sequence (O14744 whole entry): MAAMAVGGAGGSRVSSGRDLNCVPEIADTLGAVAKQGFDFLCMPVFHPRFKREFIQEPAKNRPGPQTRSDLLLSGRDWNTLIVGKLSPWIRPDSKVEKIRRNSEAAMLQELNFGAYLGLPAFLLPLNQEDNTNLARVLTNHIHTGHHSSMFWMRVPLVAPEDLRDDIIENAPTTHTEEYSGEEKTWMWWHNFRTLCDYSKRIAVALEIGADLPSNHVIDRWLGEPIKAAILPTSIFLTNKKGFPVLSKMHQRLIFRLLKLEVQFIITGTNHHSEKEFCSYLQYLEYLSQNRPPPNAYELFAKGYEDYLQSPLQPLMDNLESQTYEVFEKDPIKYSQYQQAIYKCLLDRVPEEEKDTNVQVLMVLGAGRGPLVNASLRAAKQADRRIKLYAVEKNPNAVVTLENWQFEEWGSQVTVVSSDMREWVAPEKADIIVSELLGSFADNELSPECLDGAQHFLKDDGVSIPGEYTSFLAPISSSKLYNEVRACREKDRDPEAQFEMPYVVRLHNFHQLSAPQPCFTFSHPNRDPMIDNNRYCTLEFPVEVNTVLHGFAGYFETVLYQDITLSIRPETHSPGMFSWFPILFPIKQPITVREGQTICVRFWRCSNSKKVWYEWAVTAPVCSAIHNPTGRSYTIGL
T1 sequence (Q9BQA1 whole entry partner): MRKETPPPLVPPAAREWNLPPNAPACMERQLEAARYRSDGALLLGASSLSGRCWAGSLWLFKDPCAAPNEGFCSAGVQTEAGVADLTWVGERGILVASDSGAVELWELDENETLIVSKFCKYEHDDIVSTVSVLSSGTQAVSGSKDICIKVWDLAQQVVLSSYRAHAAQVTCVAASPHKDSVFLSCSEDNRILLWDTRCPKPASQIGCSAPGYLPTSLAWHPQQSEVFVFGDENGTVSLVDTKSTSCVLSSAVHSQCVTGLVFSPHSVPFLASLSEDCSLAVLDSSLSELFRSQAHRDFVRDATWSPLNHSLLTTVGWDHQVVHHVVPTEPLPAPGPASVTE

A word on the IC50: it is the point on the concentration scale where inhibition reaches its midpoint. As a reminder, the inhibition is the share of the control response that was lost under treatment. The GI50 is the concentration at which growth is held to half of that of the control. Lower therefore signals greater sensitivity of the cells. Turning to `O=C(NC[C@H](O)CN1CCc2ccccc2C1)c1ccc2[nH]c3ccccc3c2c1` [Compound 1, (S)-N-(3-(3,4-dihydroisoquinolin-2(1H)-yl)-2-hydroxypropyl)-9H-carbazole-3-carboxamide], in assay [1], the IC50 came to 0.013 ± 0.0089 µM and the inhibition at 0.1 µM came out at 73 ± 0.7%. Besides, in assay [2] (read-out: AML-12 Inhibition Rate% @10 μM), the inhibition at 10 µM was determined as 16.7 ± 10.4%. In addition, the inhibition at 20 µM in assay [2] (read-out: AML-12 Inhibition Rate% @20 μM) came out at 97.5 ± 0.1%. Also, the GI50 in assay [3] was found to be 0.271 ± 0.152 µM. This compound also had a GI50 in assay [4] of 0.552 ± 0.033 µM. In the case of `Cc1ccc2[nH]c3ccc(C(=O)NC[C@H](O)CN4CCc5ccccc5C4)cc3c2c1` [Compound 2, (S)-N-(3-(3,4-dihydroisoquinolin-2(1H)-yl)-2-hydroxypropyl)-6-methyl-9H-carbazole-3-carboxamide], the inhibition at 0.1 µM in assay [1] worked out at 59 ± 0.4%. Still for that read-out and setting: then `O=C(NC[C@H](O)CN1CCc2ccccc2C1)c1ccc2[nH]c3ccc(F)cc3c2c1` [Compound 3, (S)-N-(3-(3,4-dihydroisoquinolin-2(1H)-yl)-2-hydroxypropyl)-6-fluoro-9H-carbazole-3-carboxamide], with 65 ± 0.2%; and `COc1ccc2[nH]c3ccc(C(=O)NC[C@H](O)CN4CCc5ccccc5C4)cc3c2c1` [Compound 4, (S)-N-(3-(3,4-dihydroisoquinolin-2(1H)-yl)-2-hydroxypropyl)-6-methoxy-9H-carbazole-3-carboxamide], with 64 ± 1.5%. Take `O=C(NC[C@H](O)CN1CCc2ccccc2C1)c1ccc2[nH]c3ccc(Cl)cc3c2c1` [Compound 5, (S)-6-chloro-N-(3-(3,4-dihydroisoquinolin-2(1H)-yl)-2-hydroxypropyl)-9H-carbazole-3-carboxamide]: in assay [1], the inhibition at 0.1 µM was 69 ± 7%. Consider `Cn1c2ccccc2c2cc(C(=O)NC[C@H](O)CN3CCc4ccccc4C3)ccc21` [Compound 6, (S)-N-(3-(3,4-dihydroisoquinolin-2(1H)-yl)-2-hydroxypropyl)-9-methyl-9H-carbazole-3-carboxamide], for which the inhibition at 0.1 µM in assay [1] worked out at 63 ± 3.2%. As to `O=C(NC[C@H](O)CN1CCc2ccccc2C1)c1ccc2[nH]c3c(c2c1)CCC3` [Compound 8, (S)-N-(3-(3,4-dihydroisoquinolin-2(1H)-yl)-2-hydroxypropyl)-1,2,3,4-tetrahydrocyclopenta[b]indole-7-carboxamide], the inhibition at 0.1 µM in assay [1] worked out at 74 ± 2%. Still for that read-out and setting: then `O=C(NC[C@H](O)CN1CCc2ccccc2C1)c1ccc2[nH]c3c(c2c1)CCCCC3` [Compound 9, (S)-N-(3-(3,4-dihydroisoquinolin-2(1H)-yl)-2-hydroxypropyl)-5,6,7,8,9,10-hexahydrocyclohepta[b]indole-2-carboxamide], with 73 ± 4.1%; and `CC1CCc2[nH]c3ccc(C(=O)NC[C@H](O)CN4CCc5ccccc5C4)cc3c2C1` (stereo partly drawn) [Compound 11, N-((S)-3-(3,4-dihydroisoquinolin-2(1H)-yl)-2-hydroxypropyl)-3-methyl-2,3,4,9-tetrahydro-1H-carbazole-6-carboxamide], with 67 ± 3.5%.

As for `CCC1CCc2[nH]c3ccc(C(=O)NC[C@H](O)CN4CCc5ccccc5C4)cc3c2C1` (stereo partly drawn) [Compound 12, N-((S)-3-(3,4-dihydroisoquinolin-2(1H)-yl)-2-hydroxypropyl)-3-ethyl-2,3,4,9-tetrahydro-1H-carbazole-6-carboxamide], the inhibition at 0.1 µM in assay [1] was 58 ± 3.7%. Regarding `CC(C)n1c2c(c3cc(C(=O)NC[C@H](O)CN4CCc5ccccc5C4)ccc31)CCCC2` [Compound 16, (S)-N-(3-(3,4-dihydroisoquinolin-2(1H)-yl)-2-hydroxypropyl)-9-isopropyl-2,3,4,9-tetrahydro-1H-carbazole-6-carboxamide], in assay [1], the inhibition at 0.1 µM amounted to 70 ± 0.2%. Still for that read-out and setting: the result for `CC(C)Cn1c2c(c3cc(C(=O)NC[C@H](O)CN4CCc5ccccc5C4)ccc31)CCCC2` [Compound 17, (S)-N-(3-(3,4-dihydroisoquinolin-2(1H)-yl)-2-hydroxypropyl)-9-isobutyl-2,3,4,9-tetrahydro-1H-carbazole-6-carboxamide] reads 75 ± 1.6%; that for `O=C(NC[C@H](O)CN1CCc2ccccc2C1)c1ccc2c(c1)c1c(n2CC2CC2)CCCC1` [Compound 18, (S)-9-(cyclopropylmethyl)-N-(3-(3,4-dihydroisoquinolin-2(1H)-yl)-2-hydroxypropyl)-2,3,4,9-tetrahydro-1H-carbazole-6-carboxamide], 60 ± 4.6%. For `CN1CCc2[nH]c3ccc(C(=O)NC[C@H](O)CN4CCc5ccccc5C4)cc3c2C1` [Compound 21, (S)-N-(3-(3,4-dihydroisoquinolin-2(1H)-yl)-2-hydroxypropyl)-2-methyl-2,3,4,5-tetrahydro-1H-pyrido[4,3-b]indole-8-carboxamide], in assay [1], the inhibition at 0.1 µM stood at 48 ± 1.2%. Still for that read-out and setting: the result for `CCN1CCc2[nH]c3ccc(C(=O)NC[C@H](O)CN4CCc5ccccc5C4)cc3c2C1` [Compound 22, (S)-N-(3-(3,4-dihydroisoquinolin-2(1H)-yl)-2-hydroxypropyl)-2-ethyl-2,3,4,5-tetrahydro-1H-pyrido[4,3-b]indole-8-carboxamide] reads 64 ± 10.7%; that for `O=C(NC[C@H](O)CN1CCc2ccccc2C1)c1ccc2[nH]c3c(c2c1)CN(C1CC1)CC3` [Compound 23, (S)-2-cyclopropyl-N-(3-(3,4-dihydroisoquinolin-2(1H)-yl)-2-hydroxypropyl)-2,3,4,5-tetrahydro-1H-pyrido[4,3-b]indole-8-carboxamide], 52 ± 4.8%. Turning to `CCCN1CCc2[nH]c3ccc(C(=O)NC[C@H](O)CN4CCc5ccccc5C4)cc3c2C1` [Compound 24, (S)-N-(3-(3,4-dihydroisoquinolin-2(1H)-yl)-2-hydroxypropyl)-2-propyl-2,3,4,5-tetrahydro-1H-pyrido[4,3-b]indole-8-carboxamide], the inhibition at 0.1 µM in assay [1] stood at 63 ± 4.4%.

For `CC(C)N1CCc2[nH]c3ccc(C(=O)NC[C@H](O)CN4CCc5ccccc5C4)cc3c2C1` [Compound 25, (S)-N-(3-(3,4-dihydroisoquinolin-2(1H)-yl)-2-hydroxypropyl)-2-isopropyl-2,3,4,5-tetrahydro-1H-pyrido[4,3-b]indole-8-carboxamide], in assay [1], the inhibition at 0.1 µM is 51 ± 4.2%. In the case of `CC(C)CN1CCc2[nH]c3ccc(C(=O)NC[C@H](O)CN4CCc5ccccc5C4)cc3c2C1` [Compound 26, (S)-N-(3-(3,4-dihydroisoquinolin-2(1H)-yl)-2-hydroxypropyl)-2-isobutyl-2,3,4,5-tetrahydro-1H-pyrido[4,3-b]indole-8-carboxamide], in assay [1], the inhibition at 0.1 µM stood at 59 ± 1.4%.
